Drawing on patent US8110220B2, “Temperature sensitive polymers” (Universiteit Utrecht, priority 2005, dated 2012), this text covers hydrolysis kinetics compared for two compounds.

A short description of this series: Degradation kinetics (hydrolysis) of oligolactate monomers, HPLC. As to conditions: pH 7.4, 37° C. It is filed as physicochemical. The method, then:
The degradation kinetic studies of HEMAm-oligolactates were conducted as described by Neradovic et al [Macromolecules; 2003; 36(20); 7491-7498]. In brief, a 10 mM solution of HEMAm-oligolactate in DMSO was diluted 10 times with 100 mM PBS (pH 7.4) in a glass vial and the pH was adjusted to pH 7.4 with 4 M HCl. The resulting solutions of HEMAm-monolactate, -dilactate, -trilactate and—tetralactate were incubated in a shaking water bath at 37° C. At regular time intervals samples of 300 μl were withdrawn and 700 μl of 1 M sodium acetate buffer (pH 3.8) was added to prevent further hydrolysis. The samples were stored at 4° C. prior to HPLC analysis. The hydrolysis of HEMAm-trilactate and—tetralactate was also investigated in an acetonitril-PBS pH7.2 mixture (50:50 w/w) of lower dielectric constant to slow down the hydrolysis rate. The HPLC analysis was carried out on a Waters system (Waters Associates Inc., Milford, Mass., USA). This consisted of a pump Model 600, an autoinjector Model 717, a variable wavelength absorbance detector Model 996 and an analytical reversed phase column LiChrosphere 100 RP-18 (5 μm, 125×4 mm i.d.) with an RP-18 guard column (4×4 mm) (Merck) was used. The injection volume was 50 μl and the detection wavelength was 254 nm. […] The chromatograms were analyzed with Empower Software Version 1154 (Waters Associates Inc.). […]

As to `C=C(C)C(=O)NCCOC(=O)C(C)OC(=O)C(C)OC(=O)C(C)O` (centres unmarked) [HEMAm-Lac3, HEMAm-trilactate], the hydrolysis kinetics compared entry is “even faster hydrolysis kinetics than HEMAm-Lac1-2”.
With `C=C(C)C(=O)NCCOC(=O)C(C)OC(=O)C(C)OC(=O)C(C)OC(=O)C(C)O` (centres unmarked) [HEMAm-Lac4, HEMAm-tetralactate] the entry was “even faster hydrolysis kinetics than HEMAm-Lac1-2”.
